Data as given in US20240109900A1, “AZABICYCLIC SHP2 INHIBITORS” (IRBM S.P.A., priority 2021, published 2024).
Read-outs that look alike come from different tables or passages of the source.

What was measured:
[1] = target: SHP-2 enzyme (Met1-Leu525) (Homo sapiens (Human), UniProt Q06124); test: SHP2 inhibition enzymatic assay; format: biochemical; conditions: 75 μM DiFMUP substrate
Method in brief: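 Compounds were preincubated 30 min with 0.5 nM SHP-2 (Met1-Leu525) plus 500 nM IRS1 activating peptide (pH 7.2 HEPES, 5 mM DTT), then 75 μM DiFMUP substrate reacted 30 min at room temperature. After bpV quench, DiFMUP fluorescence gave % inhibition; four-parameter logistic fit yielded IC50.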

[2] = tested on: ERK phosphorylation in KYSE-520 cells; test: Phospho-ERK cellular assay; format: cell-based; conditions: read-out: PERK IC50
Method in brief: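 TR-FRET read-out of ERK1/2 Thr202/Tyr204 phosphorylation was taken after overnight antibody incubation at room temperature. Before that, KYSE-520 cells were treated 2 h at 37 °C with compound dilutions and lysed 30 min. Percent inhibition relative to vehicle and cell-free wells was fitted four-parametrically to give IC50.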

[3] = SHP2wt-IC50, 0.5 nM SHP-2 activated by 500 nM IRS1 peptide
[4] = 0.5 nM SHP-2 activated by 500 nM IRS1 peptide, read-out: SHP2wt-IC50
[5] = Homo sapiens, KYSE-520, 2 h, KYSE-520 cells, 2 h at 37° C., phospho-ERK1/2 (Thr202/Tyr204) TR-FRET
[6] = KYSE-520 cells, 2 h at 37° C., phospho-ERK1/2 (Thr202/Tyr204) TR-FRET

Chain of SHP-2 enzyme (Met1-Leu525) (Q06124 1-525): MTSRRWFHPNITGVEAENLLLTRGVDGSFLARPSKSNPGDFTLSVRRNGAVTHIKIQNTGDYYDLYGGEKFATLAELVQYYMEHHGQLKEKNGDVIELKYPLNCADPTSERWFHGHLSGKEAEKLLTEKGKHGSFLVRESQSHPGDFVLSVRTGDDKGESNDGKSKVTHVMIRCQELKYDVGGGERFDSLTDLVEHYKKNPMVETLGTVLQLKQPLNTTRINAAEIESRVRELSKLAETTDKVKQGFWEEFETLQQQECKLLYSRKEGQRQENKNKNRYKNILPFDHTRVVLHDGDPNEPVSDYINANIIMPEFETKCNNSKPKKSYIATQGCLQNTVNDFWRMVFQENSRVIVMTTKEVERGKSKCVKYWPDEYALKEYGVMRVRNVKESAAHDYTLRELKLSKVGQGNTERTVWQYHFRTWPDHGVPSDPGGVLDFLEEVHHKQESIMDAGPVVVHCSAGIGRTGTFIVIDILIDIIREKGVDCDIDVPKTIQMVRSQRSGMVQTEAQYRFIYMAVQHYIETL

SMILES	IC50 [1, 3] [nM]	IC50 ([2]; Homo sapiens, KYSE-520, 2 h) [nM]	IC50 [1, 4] [nM]	IC50 [2, 5] [nM]	IC50 [2, 6] [nM]
NC[C@]1(c2ccccc2F)[C@@H]2CCN(c3cnc4c(-c5ccc(OS(=O)(=O)F)c6ncccc56)n[nH]c4n3)C[C@@H]21 [Example 449, 5-(6-((1S,6R,7R)-7-(aminomethyl)-7-(2-fluorophenyl)-3-azabicyclo[4.1.0]heptan-3-yl)-1H-pyrazolo[3,4-b]pyrazin-3-yl)quinolin-8-yl sulfurofluoridate]	< 500	< 1000			
Cc1csc(C2(CN)C3CCN(c4cnc5c(-c6ccc(OS(=O)(=O)F)c(Cl)c6Cl)n[nH]c5n4)CC32)n1 (stereo not drawn) [Example 450, 4-(6-(7-(aminomethyl)-7-(4-methylthiazol-2-yl)-3-azabicyclo[4.1.0]heptan-3-yl)-1H-pyrazolo[3,4-b]pyrazin-3-yl)-2,3-dichlorophenyl sulfurofluoridate]	< 500	< 1000			
NC[C@]1(c2ccccc2F)[C@@H]2CCN(c3cnc4c(-c5ccnc(-n6cccn6)c5Cl)n[nH]c4n3)C[C@@H]21 [Example 451, ((1S,6R,7R)-3-(3-(3-chloro-2-(1H-pyrazol-1-yl)pyridin-4-yl)-1H-pyrazolo[3,4-b]pyrazin-6-yl)-7-(2-fluorophenyl)-3-azabicyclo[4.1.0]heptan-7-yl)methanamine]			< 500	< 1000	
NC[C@]1(c2ccccc2)[C@@H]2CN(c3cnc4c(-c5cccc(Cl)c5Cl)n[nH]c4n3)C[C@@H]21 [Example 452, ((1R,5S,6s)-3-(3-(2,3-dichlorophenyl)-1H-pyrazolo[3,4-b]pyrazin-6-yl)-6-phenyl-3-azabicyclo[3.1.0]hexan-6-yl)methanamine]			< 500	< 1000	
Cn1cc2c(Cl)c(-c3n[nH]c4nc(N5C[C@@H]6[C@H](C5)[C@@]6(CN)c5ccccc5)cnc34)ccc2n1 [Example 453, ((1R,5S,6s)-3-(3-(4-chloro-2-methyl-2H-indazol-5-yl)-1H-pyrazolo[3,4-b]pyrazin-6-yl)-6-phenyl-3-azabicyclo[3.1.0]hexan-6-yl)methanamine]			< 500	< 1000	
NC[C@]1(c2ccccc2F)[C@@H]2CCN(c3cnc4c(-c5ccc(-n6cccc6)cc5Cl)n[nH]c4n3)C[C@@H]21 [Example 454, ((1S,6R,7R)-3-(3-(2-chloro-4-(1H-pyrrol-1-yl)phenyl)-1H-pyrazolo[3,4-b]pyrazin-6-yl)-7-(2-fluorophenyl)-3-azabicyclo[4.1.0]heptan-7-yl)methanamine]			< 500	< 1000	
NC[C@]1(c2ccccc2)[C@@H]2CN(c3cnc4c(-c5cc(F)c6ncccc6c5)n[nH]c4n3)C[C@@H]21 [Example 455, ((1R,5S,6s)-3-(3-(8-fluoroquinolin-6-yl)-1H-pyrazolo[3,4-b]pyrazin-6-yl)-6-phenyl-3-azabicyclo[3.1.0]hexan-6-yl)methanamine]			< 500	< 1000	
NC[C@]1(c2ccccc2)[C@@H]2CN(c3cnc4c(-c5ccc6nccnc6c5Cl)n[nH]c4n3)C[C@@H]21 [Example 456, ((1R,5S,6s)-3-(3-(5-chloroquinoxalin-6-yl)-1H-pyrazolo[3,4-b]pyrazin-6-yl)-6-phenyl-3-azabicyclo[3.1.0]hexan-6-yl)methanamine]			< 500	< 1000	
Cc1csc([C@@]2(CN)[C@@H]3CN(c4cnc5c(-c6ccc7nn(C)cc7c6Cl)n[nH]c5n4)C[C@@H]32)n1 [Example 457, ((1R,5S,6r)-3-(3-(4-chloro-2-methyl-2H-indazol-5-yl)-1H-pyrazolo[3,4-b]pyrazin-6-yl)-6-(4-methylthiazol-2-yl)-3-azabicyclo[3.1.0]hexan-6-yl)methanamine]			< 500	< 1000	
Cc1csc([C@@]2(CN)[C@@H]3CN(c4cnc5c(-c6ccn7nccc7c6Cl)n[nH]c5n4)C[C@@H]32)n1 [Example 458]			< 500		< 1000
Cc1csc([C@@]2(CN)[C@@H]3CN(c4cnc5c(-c6ccnc7c(F)cccc67)n[nH]c5n4)C[C@@H]32)n1 [Example 459]			< 500		< 1000
Cc1csc([C@@]2(CN)[C@@H]3CN(c4cnc5c(-c6ccc7nccnc7c6Cl)n[nH]c5n4)C[C@@H]32)n1 [Example 460]			< 500		< 1000
Cc1csc([C@@]2(CN)[C@@H]3CN(c4cnc5c(-c6ccc7nc(C)sc7c6Cl)n[nH]c5n4)C[C@@H]32)n1 [Example 461]			< 500		< 1000
Cc1csc([C@@]2(CN)[C@@H]3CN(c4cnc5c(-c6ccc7nscc7c6Cl)n[nH]c5n4)C[C@@H]32)n1 [Example 463]			< 500		< 1000
Cc1csc([C@@]2(CN)[C@@H]3CN(c4cnc5c(-c6ccc7cn(C(F)F)nc7c6Cl)n[nH]c5n4)C[C@@H]32)n1 [Example 464]			< 500		< 1000
Cc1csc([C@@]2(CN)[C@@H]3CN(c4cnc5c(-c6ccc7nn(C(F)F)cc7c6Cl)n[nH]c5n4)C[C@@H]32)n1 [Example 466]			< 500		< 1000
Cc1csc([C@@]2(CN)[C@@H]3CN(c4cnc5c(-c6ccc7nsnc7c6Cl)n[nH]c5n4)C[C@@H]32)n1 [Example 467]			< 500		< 1000
Cc1csc([C@@]2(CN)[C@@H]3CN(c4nc5[nH]nc(-c6ccc7nc(C)sc7c6Cl)c5c(=O)n4C)C[C@@H]32)n1 [Example 469, 6-((1R,5S,6r)-6-(aminomethyl)-6-(4-methylthiazol-2-yl)-3-azabicyclo[3.1.0]hexan-3-yl)-3-(7-chloro-2-methylbenzo[d]thiazol-6-yl)-5-methyl-1,5-dihydro-4H-pyrazolo[3,4-d]pyrimidin-4-one]			< 500	< 1000	
Cn1cc2c(Cl)c(-c3n[nH]c4nc(N5C[C@@H]6[C@H](C5)[C@@]6(CN)c5nc(Cl)cs5)n(C)c(=O)c34)ccc2n1 [Example 470, 6-((1R,5S,6r)-6-(aminomethyl)-6-(4-chlorothiazol-2-yl)-3-azabicyclo[3.1.0]hexan-3-yl)-3-(4-chloro-2-methyl-2H-indazol-5-yl)-5-methyl-1,5-dihydro-4H-pyrazolo[3,4-d]pyrimidin-4-one]			< 500	< 1000	
Cn1cc2c(Cl)c(-c3n[nH]c4nc(N5C[C@@H]6[C@H](C5)[C@@]6(CN)c5nc(C(F)(F)F)cs5)n(C)c(=O)c34)ccc2n1 [Example 471, 6-((1R,5S,6r)-6-(aminomethyl)-6-(4-(trifluoromethyl)thiazol-2-yl)-3-azabicyclo[3.1.0]hexan-3-yl)-3-(4-chloro-2-methyl-2H-indazol-5-yl)-5-methyl-1,5-dihydro-4H-pyrazolo[3,4-d]pyrimidin-4-one]			< 500	< 1000	
Cc1csc([C@@]2(CN)[C@@H]3CN(c4nc5[nH]nc(-c6ccc7nn(C)cc7c6Cl)c5c(=O)n4C)C[C@@H]32)n1 [Example 472, 6-((1R,5S,6r)-6-(aminomethyl)-6-(4-methylthiazol-2-yl)-3-azabicyclo[3.1.0]hexan-3-yl)-3-(4-chloro-2-methyl-2H-indazol-5-yl)-5-methyl-1,5-dihydro-4H-pyrazolo[3,4-d]pyrimidin-4-one]			< 500	< 1000	
